Assay results as given in patent US20260285853A1, “COMPOUNDS AND METHODS FOR MODULATING SPLICING” (REMIX THERAPEUTICS INC., priority 2023, published 2026).
Where a name gives a salt, the structure may show the parent alone. Read-outs that look alike come from different tables or passages of the source.

Experiments:
Format in all cases: cell-based
[1] = tested on: SH-SY5Y (human neuroblastoma) cells; assay: Cell viability, Cell Titer Glo 2.0 assay; conditions: read-out: Viability SHSY5Y.3 GI50
Procedure, shortened: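 Toxicity screen in SH-SY5Y cells. Compounds were serially diluted in DMSO and then in medium, giving 0.1% DMSO final. Viability was read with CellTiter-Glo 2.0 after 72 h at 37 °C, 5% CO2, against medium-only blank wells.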

HTT mRNA [2] = assay: Gene panel canonical junction qPCR assay, decrease in CJ mRNA, Table 3
Procedure, shortened: (§1)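 A673 (DMEM, 10% FBS, 15,000 cells/well) or K562 (IMDM, 10% FBS) cells treated 24 h at 37 °C with 11-point 3-fold dilutions, top 10 uM, DMSO ≤0.25%. Canonical exon-exon junction mRNA measured by RT-qPCR, normalized to GAPDH, GUSB or PPIA and DMSO (ΔΔCt); IC50 from 4-parameter logistic fit.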

MYB mRNA [3] = assay: as above
Procedure, shortened: as §1

MYB mRNA [4] = assay: Splicing RT-qPCR assay (THP), Table 2A
HTT mRNA [5] = assay: Splicing RT-qPCR assay (THP), Table 2A
[6] = decrease in CJ mRNA levels, canonical junction qPCR, gene panel
[7] = Table 2A, THP, MYB alternative junction (AJ) mRNA, read-out: MYB AJ (AC50, increase in alternative junction mRNA)
[8] = Table 2A, THP, MYB canonical junction (CJ) mRNA, read-out: MYB CJ (IC50, decrease in canonical junction mRNA)
[9] = Table 2A, THP, HTT alternative junction (AJ) mRNA, read-out: HTT AJ (AC50, increase in alternative junction mRNA)
[10] = Table 2A, THP, HTT canonical junction (CJ) mRNA, read-out: HTT CJ (IC50, decrease in canonical junction mRNA)
[11] = decrease in canonical junction (CJ) mRNA, gene panel qPCR, Table 3
[12] = Table 2A (THP), AJ mRNA increase, read-out: MYB AJ (increase in alternative junction mRNA, AC50)
[13] = Table 2A (THP), CJ mRNA decrease, read-out: MYB CJ (decrease in canonical junction mRNA, IC50)
[14] = Table 2A (THP), AJ mRNA increase, read-out: HTT AJ (increase in alternative junction mRNA, AC50)
[15] = Table 2A (THP), CJ mRNA decrease, read-out: HTT CJ (decrease in canonical junction mRNA, IC50)

Compound | GI50 [1] [µM] | IC50 (HTT mRNA [2]; [6]) [µM] | IC50 (MYB mRNA [3]; [6]) [µM] | AC50 (MYB mRNA [4]; [7]) [µM] | IC50 (MYB mRNA [4]; [8]) [µM] | AC50 (HTT mRNA [5]; [9]) [µM] | IC50 (HTT mRNA [5]; [10]) [µM] | IC50 (HTT mRNA [2]; [11]) [µM] | IC50 (MYB mRNA [3]; [11]) [µM] | AC50 (MYB mRNA [4]; [12]) [µM] | IC50 (MYB mRNA [4]; [13]) [µM] | AC50 (HTT mRNA [5]; [14]) [µM] | IC50 (HTT mRNA [5]; [15]) [µM]
Cc1cn2cc(NC(=O)c3cnc(N4CCC(NC5CC5)CC4)c4cn(C)nc34)nc2c(C)n1 [Compound 609, 4-[4-(cyclopropylamino)-1-piperidyl]-N-(6,8-dimethylimidazo [1,2-a]pyrazin-2-yl)-2-methyl-pyrazolo[4,3-c]pyridine-7-carboxamide] | > 10 | > 10 | 0.1 to 1 | < 0.1 | 0.1 to 1 | > 10 | > 10 | – | – | – | – | – | –
COc1nc2c(C(=O)Nc3cc4cn(C)nc4cc3OC)ccc(N3CCC(NC4CC4)CC3)c2s1 [Compound 668, 7-(4-(cyclopropylamino)-piperidin-1-yl)-2-methoxy-N-(6-methoxy-2-methyl-2H-indazol-5-yl)benzo[d]-thiazole-4-carboxamide 2,2,2-trifluoroacetate] | 0.1 to 1 | 1 to 10 | 0.1 to 1 | 0.1 to 1 | 0.1 to 1 | 1 to 10 | 1 to 10 | – | – | – | – | – | –
Cn1cc2cc(NC(=O)c3ccc(N4CCC(NC5CC5)CC4)c4cn(C)nc34)cc(CCO)c2n1 [Compound 879] | 1 to 10 | > 10 | 1 to 10 | 1 to 10 | 1 to 10 | > 10 | > 10 | – | – | – | – | – | –
CCNC1CCN(c2ccc(C(=O)Nc3cc(Cc4ccccc4)c4nc(C)cn4c3)c3nn(C)cc23)CC1 [Compound 338, N-(8-benzyl-2-methylimidazo-[1,2-a]pyridin-6-yl)-4-[4-(ethylamino)-1-piperidyl]-2-methyl-indazole-7-carboxamide] | 0.1 to 1 | – | – | – | – | – | – | 1 to 10 | < 0.1 | < 0.1 | < 0.1 | 1 to 10 | 1 to 10
Cc1cn2cc(NC(=O)c3ccc(N4CCNCC4)c4c3OCO4)cc(F)c2n1 [Compound 642, N-(8-fluoro-2-methyl-imidazo[1,2-a]pyridin-6-yl)-7-piperazin-1-yl-1,3-benzodioxole-4-carboxamide] | 1 to 10 | 1 to 10 | 1 to 10 | 1 to 10 | 1 to 10 | 1 to 10 | 1 to 10 | – | – | – | – | – | –
Cc1cn2cc(NC(=O)c3ccc(N4CCC(NC5CC5)CC4)c4c3OCO4)cc(F)c2n1 [Compound 648, 7-[4-(cyclopropylamino)-1-piperidyl]-N-(8-fluoro-2-methyl-imidazo[1,2-a]pyridin-6-yl)-1,3-benzodioxole-4-carboxamide] | > 10 | > 10 | 1 to 10 | 1 to 10 | 1 to 10 | > 10 | > 10 | – | – | – | – | – | –
Cc1cn2cc(NC(=O)c3ccc(OC4CCNCC4)c4cn(C)nc34)nc2c(C)n1 [Compound 565] | 0.1 to 1 | – | – | – | – | – | – | 0.1 to 1 | 0.1 to 1 | 0.1 to 1 | 0.1 to 1 | 0.1 to 1 | 0.1 to 1
COc1nc2c(C(=O)Nc3cc4cn(C)nc4c(F)c3OC)ccc(N3C[C@H](C)N[C@@H](C)C3)c2s1 [Compound 786] | 1 to 10 | 1 to 10 | 0.1 to 1 | 0.1 to 1 | 0.1 to 1 | 1 to 10 | 1 to 10 | – | – | – | – | – | –
CC(=O)NCc1cn2cc(NC(=O)c3c(F)cc(N4CCC(NC5CC5)CC4)c4cn(C)nc34)nc2c(C)n1 [Compound 424, N-[6-(acetamidomethyl)-8-methyl-imidazo [1,2-a]pyrazin-2-yl]-4-[4-(cyclopropylamino)-1-piperidyl]-6-fluoro-2-methyl-indazole-7-carboxamide] | > 10 | – | – | – | – | – | – | > 10 | > 10 | > 10 | > 10 | > 10 | > 10
Cc1cn2cc(NC(=O)c3ccc(N4CCC(N[C@@H]5C[C@H]5O)CC4)c4cn(C)nc34)cc(F)c2n1 [Compound 370, N-(8-fluoro-2-methylimidazo[1,2-a]pyridin-6-yl)-4-(4-(((1R,2R)-2-hydroxycyclopropyl)amino)piperidin-1-yl)-2-methyl-2H-indazole-7-carboxamide hydrochloride] | 1 to 10 | – | – | – | – | – | – | 1 to 10 | 0.1 to 1 | < 0.1 | 0.1 to 1 | 1 to 10 | 1 to 10
COc1c(NC(=O)c2c(F)cc(N3CCC(NC4CC4)CC3)c3cn(C)nc23)cn2cc(C)nc2c1C#N [Compound 320, N-(8-cyano-7-methoxy-2-methyl-imidazo[1,2-a]pyridin-6-yl)-4-[4-(cyclopropylamino)-1-piperidyl]-6-fluoro-2-methyl-indazole-7-carboxamide] | 0.1 to 1 | – | – | – | – | – | – | 0.1 to 1 | 0.1 to 1 | 0.1 to 1 | 0.1 to 1 | 0.1 to 1 | 0.1 to 1
Cc1cn2cc(NC(=O)c3ccc(N4CCC(NC5CC5)CC4)c4cn(C)nc34)nc2c(Cn2cccn2)n1 [Compound 773, 4-[4-(cyclopropylamino)-1-piperidyl]-2-methyl-N-[6-methyl-8-(pyrazol-1-ylmethyl)imidazo[1,2-a]pyrazin-2-yl]indazole-7-carboxamide] | 1 to 10 | 1 to 10 | 1 to 10 | 1 to 10 | 1 to 10 | 1 to 10 | 1 to 10 | – | – | – | – | – | –
Cc1cn2cc(NC(=O)c3ccc(N4CCC(NC5CC5)CC4)c4cn(C)nc34)nc2c(CC2CCOC2)n1 (stereo not shown) [Compound 722, 4-[4-(cyclopropylamino)-1-piperidyl]-2-methyl-N-[6-methyl-8-(tetrahydrofuran-3-ylmethyl)imidazo[1,2-a]pyrazin-2-yl]indazole-7-carboxamide 2,2,2-trifluoroacetate] | 1 to 10 | > 10 | > 10 | > 10 | > 10 | > 10 | > 10 | – | – | – | – | – | –
COc1cc2nc(C)cn2cc1NC(=O)c1c(F)cc(N2CCC(NC3CC3)CC2)c2cc(C)nn12 [Compound 626, 4-[4-(cyclopropylamino)-1-piperidyl]-6-fluoro-N-(7-methoxy-2-methylimidazo-[1,2-a]pyridin-6-yl)-2-methylpyrazolo-[1,5-a]pyridine-7-carboxamide] | > 10 | > 10 | > 10 | > 10 | > 10 | > 10 | > 10 | – | – | – | – | – | –
COc1c(NC(=O)c2c(F)cc(N3CCC(NC4CC4)CC3)c3cn(C)nc23)cc2cn(C)nc2c1Cl [Compound 433, N-(7-chloro-6-methoxy-2-methyl-indazol-5-yl)-4-[4-(cyclopropylamino)-1-piperidyl]-6-fluoro-2-methyl-indazole-7-carboxamide] | < 0.1 | – | – | – | – | – | – | 0.1 to 1 | < 0.1 | < 0.1 | < 0.1 | 0.1 to 1 | 0.1 to 1
COc1c(NC(=O)c2c(F)cc(N3CCC(NC4CC4)C4(CC4)C3)c3cn(C)nc23)cn2cc(C)nc2c1F (stereo not shown) [Compound 369, 4-[8-(cyclopropylamino)-5-azaspiro [2.5]octan-5-yl]-6-fluoro-N-(8-fluoro-7-methoxy-2-methyl-imidazo[1,2-a]-pyridin-6-yl)-2-methyl-indazole-7-carbox-amide] | 0.1 to 1 | – | – | – | – | – | – | 1 to 10 | < 0.1 | < 0.1 | < 0.1 | 0.1 to 1 | 1 to 10
